Measurements published in article PMC11679793, “Structure-Activity Relationship Study of Majusculamide D: Overcoming Metabolic Instability and Severe Toxicity with a Fluoro Analogue” (Marine Drugs, 2024).
In brackets after ≈: the same amount, converted by molar mass. Where two headings read alike, the source gives them in different places.

Assays:
PANC-1 cells = assay: MTT cell activity assay (inhibitory activity against PANC-1 cells); type: cell-based
Description: A total of 3000 PANC-1 cells were resuspended in 200 μL of culture medium and seeded into 96-well plates. After 24 h, the cells were treated with the compound and incubated for an additional 72 h. Following the incubation, 20 μL of 5 mg/mL MTT solution (Solarbio, China) was added to each well in the dark, and the cells were incubated for another 4 h. After incubation, the culture medium was discarded, and the wells were washed with PBS to remove any residual medium. Then, 200 μL of DMSO was added to each well to fully dissolve the formazan crystals, and the solution was mixed thoroughly. The absorbance was measured at 492 nm/570 nm, and the data were analyzed using GraphPad Prism.

[1] = Preliminary water solubility test; type: physicochemical; conditions: thermodynamic from solid, 25 °C, ultrasonic treatment 30 min, visual
PANC-1 xenograft tumor = system: PANC-1 xenograft tumor
Description: Furthermore, a xenografted murine subcutaneous tumor model was employed to evaluate the effects of majusculamide D and the optimized analogues 1c and 1n (Figure 1B). PANC1-bearing BALB/c nude mice were separated randomly, with a total of six mice in each group. Gemcitabine was chosen as the positive drug; the mice were then administered intravenous doses of 1c (5 mg/kg), 1n (5 mg/kg), 1a (5 mg/kg), and gemcitabine (20 mg/kg) every other day for 24 days.
A total of 4 × 10^6 PANC-1 cells suspended in 100 μL PBS were subcutaneously injected into the right shoulder region of BALB/c nude mice. When the tumor volume reached approximately 200 mm^3, the mice were euthanized, and the tumor tissues were harvested and designated as F1 generation. Tumor tissues were then cut into small cubes measuring approximately 3 × 3 × 3 mm, which were implanted into new BALB/c mice to propagate the tumors. This procedure was repeated to obtain the F2 generation of tumors. Finally, mice bearing F3 generation transplant tumors were used for drug treatment experiments. When the tumor volume reached approximately 80–100 mm^3, the mice were randomly divided into five groups (n = 6): control group, 5 mg/kg compound 1a group, 5 mg/kg compound 1c group, 5 mg/kg compound 1n group, and 20 mg/kg gemcitabine group. The compounds 1a, 1c, and 1n were dissolved in DMSO and then diluted with 0.9% physiological saline to achieve a final concentration of 0.5 mg/mL as the dosing concentration. Gemcitabine was dissolved directly in 0.9% saline to achieve a final concentration of 2 mg/mL as the dosing concentration. The compounds were administered intravenously every two days, alternating between the left and right tail veins to minimize vein damage. Injections were performed using ultra-fine syringes (30G needles) to reduce stress and ensure consistent delivery. The body weight and tumor volume of the mice were measured every four days. On day 24, the mice were euthanized, and the tumor weights were recorded. Tumor volume (V) was calculated using the formula: V = (ab^2)/2, with “a” representing the long diameter of the tumor and “b” representing the short diameter of the tumor. […] Tumor weight was used to calculate the tumor inhibition rate (Figure 1G).

[2] = Homo sapiens, PANC-1, 72 h, read-out: IC50 (nM), inhibitory activity against PANC-1 cells (Table 1), PANC-1 cells, 72 h incubation, mean ± SD, n = 3
[3] = Homo sapiens, PANC-1 cells, 72 h incubation, mean ± SD, n = 3, read-out: IC50 (nM), inhibitory activity against PANC-1 cells (Table 1)
[4] = read-out: IC50 (nM), inhibitory activity against PANC-1 cells (Table 1), PANC-1 cells, 72 h incubation, mean ± SD, n = 3
[5] = Homo sapiens, PANC-1 cells, 72 h incubation, mean ± SD, n = 3, Table 2 series, read-out: IC50 (nM), inhibitory activity against PANC-1 cells (Table 2)

SMILES	solubility [1] [µg/mL]	IC50 (PANC-1 cells; [5]) [nM]	other results
CCCCC(C)CC(C)C(=O)N(C)C(Cc1ccc(OC)cc1)C(=O)NC(COC(C)=O)C(=O)N(C)C(C(=O)N1CC(O)CC1C(=O)N1C(=O)C=CC1C)C(C)C (stereo not shown) [Compound 1d]	–	–	IC50 (PANC-1 cells; [2]): 2.15 ± 0.37 nM
CCCCC(C)CC(C)C(=O)N(C)C(Cc1ccc(OC)cc1)C(=O)NC(C(=O)N(C)C(C(=O)N1CC(O)CC1C(=O)N1C(=O)C=CC1C)C(C)C)C(C)NC(C)=O (stereo not shown) [Compound 1e]	–	–	IC50 (PANC-1 cells; [3]): 2.94 ± 0.93 nM
CCCCC(C)CC(C)C(=O)N(C)C(Cc1ccccc1)C(=O)NC(C(=O)N(C)C(C(=O)N1CC(O)CC1C(=O)N1C(=O)C=CC1C)C(C)C)C(C)OC(C)=O (stereo not shown) [Compound 1h]	–	–	IC50 (PANC-1 cells; [2]): 72 ± 21.9 nM
CCCCC(C)CC(C)C(=O)N(C)C(Cc1ccc(-c2ccccc2)cc1)C(=O)NC(C(=O)N(C)C(C(=O)N1CC(O)CC1C(=O)N1C(=O)C=CC1C)C(C)C)C(C)OC(C)=O (stereo not shown) [Compound 1j]	–	–	IC50 (PANC-1 cells; [2]): < 1 nM; IC50 (PANC-1 cells; [4]): 0.7 ± 0.07 nM
CCCCC(C)CC(C)C(=O)N(C)C(Cc1ccc(OC)cc1)C(=O)NC(C(=O)N(C)C(C(=O)N1CC(F)CC1C(=O)N1C(=O)C=CC1C)C(C)C)C(C)OC(C)=O (stereo not shown) [Compound 1k]	–	–	IC50 (PANC-1 cells; [2]): 2.55 ± 0.55 nM
CCCCC(C)CC(C)C(=O)N(C)C(Cc1ccc(OC)cc1)C(=O)NC(C(=O)N(C)C(C(=O)N1CC(O)CC1C(=O)N1CC=CC1=O)C(C)C)C(C)OC(C)=O (stereo not shown) [Compound 1l]	–	–	IC50 (PANC-1 cells; [2]): 134 ± 78.2 nM
CCCCC(C)CC(C)C(=O)N(C)C(Cc1ccc(OC)cc1)C(=O)NC(C(=O)N(C)C(C(=O)N1CC(O)CC1C(=O)N1C(=O)C=CC1C)C(C)C)C(C)OC(C)=O (stereo not shown) [Compound 1m]	–	–	IC50 (PANC-1 cells; [4]): 4.68 ± 0.59 nM
CCCCC(C)CC(C)C(=O)N(C)C(Cc1ccc(OC)cc1)C(=O)NC(C(=O)N(C)C(C(=O)N1CC(O)CC1C(=O)N1C(=O)C=CC1C)C(C)C)C(C)O (stereo not shown) [Compound 14a]	–	–	IC50 (PANC-1 cells; [2]): 1160 ± 195 nM
CCCCC(C)CC(C)C(=O)N(C)C(Cc1ccc(OC)cc1)C(=O)NC(C(=O)N(C)C(C(=O)N1CC(O)CC1C(=O)N1C(=O)C=CC1C)C(C)C)C(C)NC(=S)NC (stereo not shown) [Compound 14b]	–	–	IC50 (PANC-1 cells; [3]): 1.06 ± 0.35 nM
CCCCC(C)CC(C)C(=O)N(C)C(Cc1ccc(O)cc1)C(=O)NC(C(=O)N(C)C(C(=O)N1CC(O)CC1C(=O)N1C(=O)C=CC1C)C(C)C)C(C)OC(C)=O (stereo not shown) [Compound 14c]	–	–	IC50 (PANC-1 cells; [2]): 5.31 ± 1.46 nM
CCCC[C@@H](C)C[C@@H](C)C(=O)N(C)[C@@H](Cc1ccc(OC)cc1)C(=O)N[C@H](C(=O)N(C)[C@H](C(=O)N1C[C@@H](O)C[C@H]1C(=O)N1C(=O)C=C[C@@H]1C)C(C)C)[C@@H](C)NC(=O)[C@@H]1CCCN1 [Compound 16a]	210 (≈ 242 µM)	40.8 ± 14.1	–
CCCC[C@@H](C)C[C@@H](C)C(=O)N(C)[C@@H](Cc1ccc(OC)cc1)C(=O)N[C@H](C(=O)N(C)[C@H](C(=O)N1C[C@@H](O)C[C@H]1C(=O)N1C(=O)C=C[C@@H]1C)C(C)C)[C@@H](C)NC(=O)[C@@H](N)[C@@H](C)O [Compound 16b]	410 (≈ 471 µM)	116 ± 54	–
CCCC[C@@H](C)C[C@@H](C)C(=O)N(C)[C@@H](Cc1ccc(OC)cc1)C(=O)N[C@H](C(=O)N(C)[C@H](C(=O)N1C[C@@H](O)C[C@H]1C(=O)N1C(=O)C=C[C@@H]1C)C(C)C)[C@@H](C)NC(=O)[C@@H](N)Cc1c[nH]c2ccccc12 [Compound 16c]	200 (≈ 209 µM)	34.4 ± 4.5	–
CCCC[C@@H](C)C[C@@H](C)C(=O)N(C)[C@@H](Cc1ccc(OC)cc1)C(=O)N[C@H](C(=O)N(C)[C@H](C(=O)N1C[C@@H](O)C[C@H]1C(=O)N1C(=O)C=C[C@@H]1C)C(C)C)[C@@H](C)NC(=O)CNC [Compound 16d]	810 (≈ 964 µM)	16.2 ± 6.72	–
CCCC[C@@H](C)C[C@@H](C)C(=O)N(C)[C@@H](Cc1ccc(OC)cc1)C(=O)N[C@H](C(=O)N(C)[C@H](C(=O)N1C[C@@H](O)C[C@H]1C(=O)N1C(=O)C=C[C@@H]1C)C(C)C)[C@@H](C)NC(=O)[C@@H](N)CC(C)C [Compound 16e]	230 (≈ 261 µM)	34.2 ± 6.36	–
CCCC[C@@H](C)C[C@@H](C)C(=O)N(C)[C@@H](Cc1ccc(OC)cc1)C(=O)N[C@H](C(=O)N(C)[C@H](C(=O)N1C[C@@H](O)C[C@H]1C(=O)N1C(=O)C=C[C@@H]1C)C(C)C)[C@@H](C)NC(=O)[C@@H](N)CCSC [Compound 16f]	170 (≈ 189 µM)	13.1 ± 6.3	–
CCCC[C@@H](C)C[C@@H](C)C(=O)N(C)[C@@H](Cc1ccc(OC)cc1)C(=O)N[C@H](C(=O)N(C)[C@H](C(=O)N1C[C@@H](O)C[C@H]1C(=O)N1C(=O)C=C[C@@H]1C)C(C)C)[C@@H](C)NC(=O)CN [Compound 16g]	160 (≈ 194 µM)	43.1 ± 29.8	–
CCCC[C@@H](C)C[C@@H](C)C(=O)N(C)[C@@H](Cc1ccc(OC)cc1)C(=O)N[C@H](C(=O)N(C)[C@H](C(=O)N1C[C@@H](O)C[C@H]1C(=O)N1C(=O)C=C[C@@H]1C)C(C)C)[C@@H](C)NC(=O)[C@H](C)N [Compound 16h]	360 (≈ 429 µM)	79.9 ± 45.9	–
CCCC[C@@H](C)C[C@@H](C)C(=O)N(C)[C@@H](Cc1ccc(OC)cc1)C(=O)N[C@H](C(=O)N(C)[C@H](C(=O)N1C[C@@H](O)C[C@H]1C(=O)N1C(=O)C=C[C@@H]1C)C(C)C)[C@@H](C)NC(=O)[C@@H](N)CCC(N)=O [Compound 16i]	530 (≈ 591 µM)	740 ± 713	–
CCCC[C@@H](C)C[C@@H](C)C(=O)N(C)[C@@H](Cc1ccc(OC)cc1)C(=O)N[C@H](C(=O)N(C)[C@H](C(=O)N1C[C@@H](O)C[C@H]1C(=O)N1C(=O)C=C[C@@H]1C)C(C)C)[C@@H](C)NC(=O)[C@@H](N)CO [Compound 16j]	360 (≈ 421 µM)	184 ± 33.2	–
CCCC[C@@H](C)C[C@@H](C)C(=O)N(C)[C@@H](Cc1ccc(OC)cc1)C(=O)N[C@H](C(=O)N(C)[C@H](C(=O)N1C[C@@H](O)C[C@H]1C(=O)N1C(=O)C=C[C@@H]1C)C(C)C)[C@@H](C)NC(=O)C1CCC(=O)N1 (stereo partly shown) [Compound 16k]	330 (≈ 375 µM)	472 ± 69.7	–
CCCC[C@@H](C)C[C@@H](C)C(=O)N(C)[C@@H](Cc1ccc(OC)cc1)C(=O)N[C@H](C(=O)N(C)[C@H](C(=O)N1C[C@@H](O)C[C@H]1C(=O)N1C(=O)C=C[C@@H]1C)C(C)C)[C@@H](C)NC(=O)[C@@H](N)Cc1ccccc1 [Compound 16l]	130 (≈ 142 µM)	55.4 ± 14.7	–
CCCC[C@@H](C)C[C@@H](C)C(=O)N(C)[C@@H](Cc1ccc(OC)cc1)C(=O)N[C@H](C(=O)N(C)[C@H](C(=O)N1C[C@@H](O)C[C@H]1C(=O)N1C(=O)C=C[C@@H]1C)C(C)C)[C@@H](C)NC(=O)[C@@H](N)Cc1ccc(O)cc1 [Compound 16m]	160 (≈ 172 µM)	278 ± 14.9	–
Nc1ccn([C@@H]2O[C@H](CO)[C@@H](O)C2(F)F)c(=O)n1 [Gemcitabine, reference compound]	–	–	tumor inhibition rate (%) (PANC-1 xenograft tumor; calculated from tumor weight, day 24, 1a, 1c, 1n 5 mg/kg, gemcitabine 20 mg/kg i.v.): 51.0%; tumor weight (PANC-1 xenograft tumor; day 24, i.v. every other day, 1a, 1n 5 mg/kg, gemcitabine 20 mg/kg, mean ± SD): 0.548 ± 0.153 g; tumor volume (PANC-1 xenograft tumor; mouse, in vivo): 561.1 ± 177.3 mm^3
